# “Also recorded” adds a separate entry of the source. Structures can show the parent of a compound that is named as a salt. Where two headings read alike, the source gives them in different places.
# Key:
# L1210 leukemia cells = assay: L1210 ascitic leukemia survival, single dose (Example 14); type: in vivo, mice
# Method: Murine leukemia cells, L1210 leukemia cells were grown in the peritoneum of CD2F1 mice by three serial propagations (i.p.). Ascites developed within eight days of the last inoculation were used in the following experiments. Cytostatic activities of liposomal and conventional formulations of mitoxantrone against L1210 ascitic leukemia was determined. Animal group weights were determined three times a week and clinically morbid animals were humanely sacrificed. The surviving mice were observed daily for 60 days. Group survival times post i.v. treatment with single or multiple doses of the drug was indicative of the relative anti-tumor potencies of liposomal and conventional mitoxantrone.
# Female CD2F1 mice were divided into eight groups of 10 animals and inoculated i.v. with 10,000 L1210 cells. Drug was administered twenty-four hours later. Conventional mitoxantrone was administered at doses of 5 and 10 mg/kg. […] Surviving animals were sacrificed on day 60 of the experiment. Blank liposomes equivalent to the 35, mg/kg dose and normal saline was also administered as controls.
# [1] = system: human hormone-refractory prostate tumor cells (PC-3)
# Method: Male Balb/c, nu/nu, 6-8 week old mice were inoculated with 5×10^6 of human hormone-refractory prostate tumor cells (PC-3). Tumor growth was monitored twice a week until the tumor volumes were in the range of […]. Animals were then divided into groups and were treated by i.v. injection via the tail vein with conventional mitoxantrone at doses of 0.625, 1.25, 2.5, and 5 mg/kg once every other day for four days. Doses of mitoxantrone formulated in liposomes were 2.5, 5, 7.5, and 10 mg/kg. Control animals received either normal saline or blank liposomes. The median survival time was calculated and all surviving animals were sacrificed on Day 34.
# In these experiments tumor volumes were measured once or twice a week by measuring the three major axes.
# male CD2F1 mice [2] = system: male CD2F1 mice
# Method: Eighty male CD2F1 mice weighing 20-22 g were acclimated for 1 week and randomly separated into 8 groups of ten animals each with 5 animals per cage. On day 0 all groups of animals were injected i.v. in the tail vein with the drug or vehicle control. The volumes administered were varied based on individual animal weights. Mouse weights were recorded for each mouse on alternate days following injection and observation for clinical illness were recorded at least daily.
# male CD2F1 mice [3] = settings: 25 mg/kg single i.v.
# Method: Twenty male CD2F1 mice weighing 20-22 g were acclimated for 1 week and randomly separated into 4 groups of five animals each with 5 animals per cage. On day 0 all groups of animals were injected i.v. in the tail vein with the drug or vehicle control. The volumes administered were varied based on individual animal weights. Mouse weights were recorded for each mouse on alternate days following injection and observation for clinical illness were recorded at least daily.
# male CD2F1 mice [4] = system: male CD2F1 mice; remark: listed apart in the source
# Method: Seventy male CD2F1 mice weighing 20-22 g were acclimated for 1 week and randomly separated into 7 groups of ten animals each with 5 animals per cage. On day 0 all groups of animals were injected i.v. in the tail vein with the drug or vehicle control. The volumes administered were varied based on individual animal weights. Mouse weights were recorded for each mouse on alternate days following injection and observation for clinical illness were recorded at least daily.
# male CD2F1 mice [5] = system: male CD2F1 mice; remark: listed apart in the source
# Method: Forty male CD2F1 mice weighing 20-22 g were acclimated for 1 week and randomly separated into 8 groups of five animals each with 5 animals per cage. On day 0 all groups of animals were injected i.v. in the tail vein with the drug or vehicle control and once daily thereafter for a period of 5 days. The volumes administered were varied based on individual animal weights. Mouse weights were recorded for each mouse on alternate days following injection and observations of clinical illness were recorded at least daily.
# male CD2F1 mice [6] = system: male CD2F1 mice; remark: listed apart in the source
# Method: Thirty male CD2F1 mice weighing 20-22 g were acclimated for 1 week and randomly separated into 6 groups of five animals each with 5 animals per cage. On day 0 all groups of animals were injected i.v. in the tail vein with the drug or vehicle control and once daily thereafter for a period of 5 days. The volumes administered were varied based on individual animal weights. Mouse weights were determined for each mouse on alternate days following injection and observation for clinical illness were recorded at least daily.
# in vivo [7] = settings: male, CD2F1, mouse, plasma, iv, 5 mg/kg
# Method: Plasma and tissue samples were analyzed for mitoxantrone by reverse phase HPLC. Plasma samples (0.25 ml) were mixed with 0.5 ml of solution of 0.01 mg/ml hexanesulfonic acid, 0.5 mg/ml ascorbic acid, and 0.25 μg ametantrone as internal standard. After vortexing for 30 sec., 0.5 ml of 0.1 M borate buffer (pH 9.5) and 150 μl of 1 M sodium hydroxide was added and the solution vortexed again for 30 sec. […] The organic layer (9 ml) was separated and evaporated under nitrogen. Samples were reconstituted with 10 μl of mobile phase prior to HPLC analysis. Tissue samples were homogenized in 1 ml of solution containing 20% ascorbic acid in 0.1 M citrate buffer, pH 3.0, and extracted as described above. Mitoxantrone was separated by reverse-phase chromatography (Waters μBondapak® C-18) using a mobile phase of 33% acetonitrile, and 67% 0.16 M ammonium formate buffer, pH 2.7 delivered at a flow rate of 1 ml/min. Mitoxantrone was detected at 600 nm. The limit of sensitivity was 10 ng/ml.
# Plasma Pharmacokinetic parameters were assessed by standard methods. The elimination rate constant (K) was calculated from the linear regression analysis of plasma concentration-time curve. The area under the curve (AUC0→∞) was calculated using the linear trapezoidal method with extrapolation of the terminal phase to infinity (Clast/K), where Clast is the last measured concentration. Other parameters calculated were total body clearance (Cl) as Dose/AUC; volume of distribution (Varea)=Cl/K; elimination half-life (t1/2)=0.693/Karea.
# in vivo [8] = settings: beagle, dog, plasma, iv, 0.26 mg/kg
# Method: (§1) Time points analyzed were 0, 5 and 30 min and 1, 2, 4, 8 and 24 h after a single dose administration.
# [9] = Plasma pharmacokinetics in dogs (Example 17)
# Method: as §1
# beagle dogs = assay: Repeated-dose i.v. toxicity in beagle dogs (Example 18)
# Method: Conventional mitoxantrone was administered to beagle dogs (3/sex/group) at i.v. dosages of 0 (saline), 0.129 or 0.258 mg/kg (2.6 or 5 mg/m^2) on Days 1, 23, 43 and 65. […] Evaluations for compound-related effects were based on clinical observations, body weight, food consumption, ophthalmologic and ECG examination, clinical pathology, plasma drug concentrations, organ weights and gross and microscopic postmortem examinations.
# [10] = conventional 5 mg/kg, liposomal 10 mg/kg, daily x5
smiles,measurement,setting,value
"O=C1c2c(O)ccc(O)c2C(=O)c2c(NCCNCCO)ccc(NCCNCCO)c21 [conventional mitoxantrone, mitoxantrone hydrochloride]",median survival,"L1210 leukemia cells; 5 mg/kg single i.v., 24 h after 10,000 L1210 cells i.v.",12 days
same,animals alive at day 60,L1210 leukemia cells; 10 mg/kg single i.v.,2/10
same,median survival time,L1210 leukemia cells; 10 mg/kg single i.v.,20 days
same,survival by day 34,[1]; 0.625 and 1.25 mg/kg i.v. once every other day,100%
same,survival by day 34,[1]; 2.5 and 5 mg/kg i.v. once every other day,no animals
same,toxicity in tumor-bearing mice,[1]; in vivo,Severe toxicity
same,weight loss,"male CD2F1 mice [2]; 10 mg/kg single i.v., by day 10, then gradual recovery",20%
same,morbidity,male CD2F1 mice [2]; 15 mg/kg single i.v. dose,100%
same,weight loss,"male CD2F1 mice [2]; 15 mg/kg single i.v., by day 9/10",about 35%
same,ALT,"male CD2F1 mice [2]; 15 mg/kg single i.v., day 10, hydrochloride",Clinically significant elevations in ALT; also recorded: significant increases in ALT
same,BUN,"male CD2F1 mice [2]; 15 mg/kg single i.v., two mice",modest elevations in BUN
same,histopathology,"male CD2F1 mice [2]; single i.v. dose, spleen and bone marrow",compound effects on hematopoietic and lymphoid tissues of the spleen and bone marrow
same,body weight course (remaining groups),"male CD2F1 mice [2]; single i.v., conventional 5 mg/kg, liposomal 5, 10, 15 mg/kg",gained weight steadily
same,morbidity,male CD2F1 mice [3],100%
same,initial weight loss,"male CD2F1 mice [4]; 10 mg/kg single i.v., gradual recovery",13%
same,morbidity,male CD2F1 mice [4]; 25 mg/kg single i.v.,100%
same,ALT activities,"male CD2F1 mice [4]; day 3, one mouse each: conventional 25 mg/kg, liposomal 35 mg/kg",modest increases in ALT activities
same,animals that died,male CD2F1 mice [5]; 5 and 7.5 mg/kg daily x5,all of the animals
same,progressive weight loss,"male CD2F1 mice [5]; 5 and 7.5 mg/kg daily x5, by day 7",about 25%
same,hepatocellular vacuolar degeneration,"male CD2F1 mice [5]; 5 or 7.5 mg/kg daily x5, several mice",Some hepatocellular vacuolar degeneration
same,leukopenia in moribund-sacrificed mice,"male CD2F1 mice [5]; conventional 5, 7.5 mg/kg, liposomal 7.5 mg/kg, daily x5","marked, clinically significant, compound related leukopenia"
same,clinical signs,"male CD2F1 mice [5]; day 6, conventional 2.5, 5, 7.5 mg/kg, liposomal 7.5 mg/kg, daily x5",ruffled fur and hunching behavior
same,morbidity or mortality,"male CD2F1 mice [5]; liposomal any dose (2.5-7.5 mg/kg), conventional […], daily x5",no morbidity or mortality
same,lethality (mice tested),male CD2F1 mice [6]; 5 mg/kg daily x5,100%
same,progressive weight loss,"male CD2F1 mice [6]; 5 mg/kg daily x5, by day 9",about 35%
same,"acute liver injury (ALT, AST, bilirubin)","male CD2F1 mice [6]; by day 8, conventional 5 mg/kg/day vs liposomal 10 mg/kg/day",roughly equivalent acute liver injury
same,AST and ALT in moribund sacrificed animals,male CD2F1 mice [6]; [10],marked elevations in AST and ALT
same,leukopenia in moribund animals,male CD2F1 mice [6]; [10],marked leukopenia
same,mice with bilirubin concentration greater than in control mice,male CD2F1 mice [6]; [10],3 of the 4
same,clinical signs,"male CD2F1 mice [6]; conventional 2.5, 5 mg/kg, liposomal 10 mg/kg, daily x5",ruffled fur and hunching behavior
same,"tissue concentration, kidneys",5 mg/kg single i.v.,~40 µg/g
same,"tissue concentration, lungs",5 mg/kg single i.v.,approximately 20 μg/g
same,heart tissue concentration,"5 mg/kg single i.v., 5 and 15 minutes",approximately 10 μg/g
same,heart concentration (peak),"5 mg/kg single i.v., 5 minutes",11 µg/g
same,liver concentration after gradual decrease,"5 mg/kg single i.v., end of time course",~2 µg/g
same,"liver concentration, initial","5 mg/kg single i.v., start of time course",approximately 19 μg/g
same,"heart, lung and kidney concentrations, comparison of formulations","all time points, 5 mg/kg i.v.",higher
same,AUC,in vivo [7],140 ng·h/mL
same,Cmax,in vivo [7],410 ng/mL
same,Vd,in vivo [7],5.5 L/kg
same,clearance,in vivo [7],600 mL/min/kg
same,half-life,in vivo [7],6.6 min
same,Cmax,in vivo [8]; female,60 ng/mL
same,Cmax,in vivo [8]; male,84 ng/mL
same,clearance,in vivo [8]; male,89 mL/min/kg
same,half-life,in vivo [8]; male,21.6 min
same,V,"[9]; 0.26 mg/kg i.v., male dogs, mean",2.8 L/kg
same,time point at which plasma concentrations could not be measured,[9]; high dose (0.26 mg/kg),30 min
same,hematology,"beagle dogs; 0.129 and 0.258 mg/kg, 4 to 10 days following each dose cycle, dose related",leukopenia and thrombocytopenia
same,ECG parameters,beagle dogs; any examination time,no changes in ECG parameters
same,food consumption,beagle dogs; any groups,no changes in food consumption
same,coagulation or clinical chemistry parameters,beagle dogs; any of the dosage groups,No changes
same,anemia,"beagle dogs; conventional: all animals, liposomal: female dogs",Anemia did not occur
same,body weight,"beagle dogs; conventional: males at 0.258 mg/kg, liposomal: all dose groups, Days 1, 23, 43, 65",lost weight

# — US20030219476A1, “Liposomal formulation of mitoxantrone” (priority 2000, published 2003)
